The record followed here is patent US6498149B1, “Natural antitumor or antiviral substances and use of the same” (Techno Seven Co., Ltd., priority 1997, dated 2002).

Series [1] in a line: Physico-chemical properties (solubility, acid/base nature). It is filed as physicochemical.
For series [2], the system named is Molt4 (human T cell leukemia cell line). The series is described as follows: Suppression of incorporation of 3H-thymidine into / proliferation of the Molt4 cell. It is filed as cell-based. Conditions: samples from single HPLC peaks, 7 μg/ml. The procedure:
The apoptosis inducing factor (AIF) is produced and released in the supernatant of the NS cell line culture. Thus, the AIF produced by the NS cell was separated and purified by the physico-chemical methods. The activity of AIF was measured by the ability of […] and the DNA fragmentation method. First, the supernatant of the culture of the NS cell line was adsorbed on a C18 column and eluted to separate the AIF. The crude extract was developed on a thin layer chromatography (TLC) plate, and the active fractions were isolated and purified by reverse phase high performance liquid chromatography (HPLC).
The sample lyophilized from 50 ml of the supernatant of the NS cell line culture was subjected to chromatography on a C18 column (BONDELUTE), and the fraction retained in the column was separated and eluted with acetonitrile and methanol, and concentrated to dryness by evaporating the solvents with nitrogen gas.
The fraction was further developed by TLC. That is to say, the solution of the materials separated on the C18 column in chloroform: methanol (1:1) was spotted on a thin layer and developed by chloroform: methanol: distilled water (60:40:8). […]

With `CO[C@@H]1[C@H](O)[C@@H](CO)O[C@H]1n1cnc2c(=O)[nH]c(N)nc21` [P6, 2′-O-methylguanosine], in series [1], the “discrimination of acidic, neutral and basic substances” value (“discrimination of acidic” below) is on record as “basic substance”; the solubility result was “soluble in organic solvents such as methanol, dimethylsulfoxide and in water”.
Regarding `Cc1cn([C@@H]2O[C@H](CO)[C@@H](O)[C@H]2O)c(=O)[nH]c1=O` [P2, ribothymidine], in series [2], the “suppression of incorporation of 3H-thymidine into the Molt4 cell” value is “strong activity”. For the same molecule, in series [1], the “discrimination of acidic” value is given as “basic substance”; the solubility result was “soluble in organic solvents such as methanol, dimethylsulfoxide and in water”.
Take `Cc1cn([C@H]2C[C@H](O)[C@@H](CO)O2)c(=O)[nH]c1=O` [P4, thymidine]: in series [1], the “discrimination of acidic” value is “basic substance”; the solubility entry was “soluble in organic solvents such as methanol, dimethylsulfoxide and in water”.
In the case of `CO[C@@H]1[C@H](O)[C@@H](CO)O[C@H]1n1cnc2c(O)ncnc21` [P5, 2′-O-methylinosine], in series [1], the “discrimination of acidic” value is “basic substance”; the solubility entry is “soluble in organic solvents such as methanol, dimethylsulfoxide and in water”.
